The values below come from ChEMBL document CHEMBL5291721, “A preclinical secondary pharmacology resource illuminates target-adverse drug reaction associations of marketed drugs” (Nat Commun, 2023).

Test [1] has as its target T1, Amine oxidase [flavin-containing] A (Homo sapiens, UniProt P21397).
T1 sequence (P21397 whole entry): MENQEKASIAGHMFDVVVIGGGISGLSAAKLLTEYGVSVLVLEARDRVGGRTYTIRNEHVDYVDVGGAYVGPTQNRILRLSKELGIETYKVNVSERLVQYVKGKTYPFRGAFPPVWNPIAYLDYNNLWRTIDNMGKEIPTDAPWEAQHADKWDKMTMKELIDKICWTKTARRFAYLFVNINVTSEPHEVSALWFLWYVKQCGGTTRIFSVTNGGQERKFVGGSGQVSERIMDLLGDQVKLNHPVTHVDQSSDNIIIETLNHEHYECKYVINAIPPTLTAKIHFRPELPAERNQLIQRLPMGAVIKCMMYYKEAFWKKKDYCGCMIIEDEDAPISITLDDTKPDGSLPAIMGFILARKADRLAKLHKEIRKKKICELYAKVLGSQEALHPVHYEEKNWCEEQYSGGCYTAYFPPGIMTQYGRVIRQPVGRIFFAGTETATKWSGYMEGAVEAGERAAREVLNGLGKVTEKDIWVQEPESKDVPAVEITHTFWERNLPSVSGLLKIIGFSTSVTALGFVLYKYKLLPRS
It counts as functional.

The target in test [2] is T2, Alpha-2A adrenergic receptor (Homo sapiens, UniProt P08913).
T2 sequence (P08913 whole entry): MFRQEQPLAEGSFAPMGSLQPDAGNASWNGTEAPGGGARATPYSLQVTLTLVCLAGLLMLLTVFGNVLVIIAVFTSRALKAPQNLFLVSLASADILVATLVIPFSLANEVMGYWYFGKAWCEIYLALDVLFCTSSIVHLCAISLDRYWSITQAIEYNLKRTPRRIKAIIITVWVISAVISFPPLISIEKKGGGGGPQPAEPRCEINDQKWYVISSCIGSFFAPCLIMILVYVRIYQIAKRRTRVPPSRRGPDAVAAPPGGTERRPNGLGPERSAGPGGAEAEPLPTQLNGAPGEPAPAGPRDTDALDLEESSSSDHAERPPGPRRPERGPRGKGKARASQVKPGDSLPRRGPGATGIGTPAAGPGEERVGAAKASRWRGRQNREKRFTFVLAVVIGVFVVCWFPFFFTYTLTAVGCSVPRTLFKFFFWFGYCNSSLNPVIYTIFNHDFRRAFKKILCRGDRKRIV

The target in test [3] is D(1A) dopamine receptor (Homo sapiens, UniProt P21728).
Test [4] deals with Gamma-aminobutyric acid receptor subunit alpha-1/alpha-2/beta-2/gamma-2 (Homo sapiens, UniProt P14867+P18507+P47869+P47870). It counts as protein-complex assay.
The target of test [5] is Sodium-dependent dopamine transporter (Homo sapiens, UniProt Q01959).
Test [6] has as its target T3, Androgen receptor (Homo sapiens, UniProt P10275).
T3 sequence (P10275 whole entry): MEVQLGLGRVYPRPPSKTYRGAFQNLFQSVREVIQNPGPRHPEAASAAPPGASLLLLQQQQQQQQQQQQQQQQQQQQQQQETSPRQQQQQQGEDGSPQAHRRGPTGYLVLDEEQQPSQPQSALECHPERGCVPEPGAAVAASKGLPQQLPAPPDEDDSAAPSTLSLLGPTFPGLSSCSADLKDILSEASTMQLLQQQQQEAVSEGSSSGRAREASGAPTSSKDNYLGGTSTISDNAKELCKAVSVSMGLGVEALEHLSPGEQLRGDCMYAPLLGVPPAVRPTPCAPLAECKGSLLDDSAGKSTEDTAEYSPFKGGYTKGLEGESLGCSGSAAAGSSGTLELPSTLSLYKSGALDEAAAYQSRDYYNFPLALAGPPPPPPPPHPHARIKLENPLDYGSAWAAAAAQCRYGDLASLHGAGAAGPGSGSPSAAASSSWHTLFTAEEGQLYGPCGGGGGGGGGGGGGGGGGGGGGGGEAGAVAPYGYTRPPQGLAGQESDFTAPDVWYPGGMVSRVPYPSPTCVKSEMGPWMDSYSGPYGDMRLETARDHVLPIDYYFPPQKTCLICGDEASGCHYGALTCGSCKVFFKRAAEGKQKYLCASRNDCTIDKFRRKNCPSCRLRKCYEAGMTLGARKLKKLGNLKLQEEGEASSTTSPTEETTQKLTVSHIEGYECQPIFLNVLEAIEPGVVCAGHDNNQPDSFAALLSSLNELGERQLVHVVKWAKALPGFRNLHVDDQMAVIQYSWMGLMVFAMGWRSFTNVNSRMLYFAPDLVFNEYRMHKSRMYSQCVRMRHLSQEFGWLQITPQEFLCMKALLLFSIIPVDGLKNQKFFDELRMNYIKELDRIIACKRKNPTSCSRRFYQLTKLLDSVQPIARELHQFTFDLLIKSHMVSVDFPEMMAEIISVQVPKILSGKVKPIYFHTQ

Test [7] has as its target Sodium-dependent noradrenaline transporter (Homo sapiens, UniProt P23975).
For test [8], the target named is Acetylcholinesterase (Homo sapiens, UniProt P22303). It counts as functional.
The target in test [9] is T4, Gamma-aminobutyric acid receptor subunit alpha-1 (Rattus norvegicus, UniProt P62813).
The target of test [10] is D(3) dopamine receptor (Homo sapiens, UniProt P35462).
For test [11], the target named is Delta-type opioid receptor (Homo sapiens, UniProt P41143).
For test [12], the target named is T5, Neuropeptide Y receptor type 1 (Homo sapiens, UniProt P25929).
T5 sequence (P25929 whole entry): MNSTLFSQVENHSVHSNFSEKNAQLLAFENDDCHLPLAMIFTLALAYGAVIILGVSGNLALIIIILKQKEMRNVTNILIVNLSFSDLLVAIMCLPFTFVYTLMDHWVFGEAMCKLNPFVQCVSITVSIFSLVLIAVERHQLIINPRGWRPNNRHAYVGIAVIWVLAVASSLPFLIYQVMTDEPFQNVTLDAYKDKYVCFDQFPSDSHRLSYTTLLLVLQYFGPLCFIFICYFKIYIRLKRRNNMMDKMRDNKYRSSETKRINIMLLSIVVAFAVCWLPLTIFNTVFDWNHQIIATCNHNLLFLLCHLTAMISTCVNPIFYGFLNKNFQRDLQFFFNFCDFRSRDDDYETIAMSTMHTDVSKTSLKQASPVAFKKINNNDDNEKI

Test [13] has as its target T4, Gamma-aminobutyric acid receptor subunit alpha-1. This is another data set of the same source.
Also: assay procedure not described here.

Sequence of Sodium-dependent noradrenaline transporter (P23975 whole entry): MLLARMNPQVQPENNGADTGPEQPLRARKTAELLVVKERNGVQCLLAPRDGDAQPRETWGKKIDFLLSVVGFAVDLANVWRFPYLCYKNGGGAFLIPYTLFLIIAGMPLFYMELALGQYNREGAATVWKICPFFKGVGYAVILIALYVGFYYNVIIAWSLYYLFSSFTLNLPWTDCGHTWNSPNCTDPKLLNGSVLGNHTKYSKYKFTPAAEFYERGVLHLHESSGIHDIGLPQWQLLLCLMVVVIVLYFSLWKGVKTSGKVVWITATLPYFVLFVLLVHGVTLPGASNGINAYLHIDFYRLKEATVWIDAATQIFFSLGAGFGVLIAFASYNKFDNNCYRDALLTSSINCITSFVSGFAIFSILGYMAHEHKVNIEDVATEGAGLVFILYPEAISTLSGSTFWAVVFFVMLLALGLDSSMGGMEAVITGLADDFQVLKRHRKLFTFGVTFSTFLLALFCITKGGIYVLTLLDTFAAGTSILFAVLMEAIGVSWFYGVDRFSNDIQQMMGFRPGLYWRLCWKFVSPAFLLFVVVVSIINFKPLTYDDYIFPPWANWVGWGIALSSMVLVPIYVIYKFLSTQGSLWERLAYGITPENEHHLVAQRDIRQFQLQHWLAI
Sequence of D(1A) dopamine receptor (P21728 whole entry): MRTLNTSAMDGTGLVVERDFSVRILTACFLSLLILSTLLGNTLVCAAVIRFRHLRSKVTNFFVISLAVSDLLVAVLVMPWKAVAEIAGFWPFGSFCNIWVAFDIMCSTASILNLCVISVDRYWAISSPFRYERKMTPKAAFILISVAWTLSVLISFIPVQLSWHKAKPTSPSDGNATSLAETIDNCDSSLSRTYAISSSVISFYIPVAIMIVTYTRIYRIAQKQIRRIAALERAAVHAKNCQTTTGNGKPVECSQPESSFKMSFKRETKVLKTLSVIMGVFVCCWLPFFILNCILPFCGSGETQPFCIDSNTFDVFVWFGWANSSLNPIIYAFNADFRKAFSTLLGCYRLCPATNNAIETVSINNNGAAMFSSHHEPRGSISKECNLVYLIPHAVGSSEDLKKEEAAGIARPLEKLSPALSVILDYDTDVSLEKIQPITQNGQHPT
Sequence of D(3) dopamine receptor (P35462 whole entry): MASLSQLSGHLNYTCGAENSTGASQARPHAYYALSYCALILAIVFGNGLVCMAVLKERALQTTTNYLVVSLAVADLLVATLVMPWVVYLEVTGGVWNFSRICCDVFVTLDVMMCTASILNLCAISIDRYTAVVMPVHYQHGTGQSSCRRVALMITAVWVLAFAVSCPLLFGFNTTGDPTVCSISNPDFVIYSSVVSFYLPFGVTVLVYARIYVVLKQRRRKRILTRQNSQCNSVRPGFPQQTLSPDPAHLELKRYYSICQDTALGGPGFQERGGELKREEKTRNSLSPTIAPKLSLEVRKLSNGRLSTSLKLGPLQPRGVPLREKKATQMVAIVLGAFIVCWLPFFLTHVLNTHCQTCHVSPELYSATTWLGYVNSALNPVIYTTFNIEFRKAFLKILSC
Sequence of Gamma-aminobutyric acid receptor subunit alpha-1/alpha-2/beta-2/gamma-2 (P14867 whole entry): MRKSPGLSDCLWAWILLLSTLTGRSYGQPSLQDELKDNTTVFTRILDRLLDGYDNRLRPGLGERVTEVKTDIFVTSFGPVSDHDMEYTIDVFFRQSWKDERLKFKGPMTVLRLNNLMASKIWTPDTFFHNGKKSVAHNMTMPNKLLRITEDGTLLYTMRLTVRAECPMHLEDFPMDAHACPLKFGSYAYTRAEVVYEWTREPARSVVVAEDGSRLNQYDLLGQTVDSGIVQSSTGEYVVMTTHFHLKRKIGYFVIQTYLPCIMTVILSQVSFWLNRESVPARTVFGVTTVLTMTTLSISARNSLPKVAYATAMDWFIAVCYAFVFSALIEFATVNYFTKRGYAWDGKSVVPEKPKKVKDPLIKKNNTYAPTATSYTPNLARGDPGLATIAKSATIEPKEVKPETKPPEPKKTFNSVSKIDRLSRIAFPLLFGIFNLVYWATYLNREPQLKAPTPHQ
Sequence of Gamma-aminobutyric acid receptor subunit alpha-1/alpha-2/beta-2/gamma-2 (P47870 whole entry): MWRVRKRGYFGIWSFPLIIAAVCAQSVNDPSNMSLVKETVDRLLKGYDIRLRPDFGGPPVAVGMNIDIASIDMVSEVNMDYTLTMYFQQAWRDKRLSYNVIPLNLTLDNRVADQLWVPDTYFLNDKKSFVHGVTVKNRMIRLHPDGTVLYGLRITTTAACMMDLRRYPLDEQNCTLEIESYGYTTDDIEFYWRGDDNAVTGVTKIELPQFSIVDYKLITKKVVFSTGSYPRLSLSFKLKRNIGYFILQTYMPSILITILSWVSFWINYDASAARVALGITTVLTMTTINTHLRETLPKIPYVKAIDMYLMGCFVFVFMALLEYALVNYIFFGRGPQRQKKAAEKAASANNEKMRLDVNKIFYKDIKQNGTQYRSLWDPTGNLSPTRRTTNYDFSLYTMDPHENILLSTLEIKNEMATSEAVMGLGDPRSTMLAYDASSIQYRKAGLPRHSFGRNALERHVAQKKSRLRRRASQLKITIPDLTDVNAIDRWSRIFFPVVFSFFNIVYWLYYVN
Sequence of Gamma-aminobutyric acid receptor subunit alpha-1/alpha-2/beta-2/gamma-2 (P18507 whole entry): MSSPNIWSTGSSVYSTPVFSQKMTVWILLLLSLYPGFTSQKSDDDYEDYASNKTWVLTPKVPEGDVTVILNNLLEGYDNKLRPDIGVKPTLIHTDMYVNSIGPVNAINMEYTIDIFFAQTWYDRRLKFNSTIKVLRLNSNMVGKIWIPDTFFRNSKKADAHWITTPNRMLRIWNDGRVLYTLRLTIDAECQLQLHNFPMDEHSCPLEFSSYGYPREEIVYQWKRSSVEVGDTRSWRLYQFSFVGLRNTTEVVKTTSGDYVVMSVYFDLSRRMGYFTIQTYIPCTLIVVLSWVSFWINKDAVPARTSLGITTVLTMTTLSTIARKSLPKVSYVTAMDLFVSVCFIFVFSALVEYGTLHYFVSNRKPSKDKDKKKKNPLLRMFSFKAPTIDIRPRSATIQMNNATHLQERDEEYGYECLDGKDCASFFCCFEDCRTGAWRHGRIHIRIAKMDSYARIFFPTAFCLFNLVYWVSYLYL
Sequence of Gamma-aminobutyric acid receptor subunit alpha-1/alpha-2/beta-2/gamma-2 (P47869 whole entry): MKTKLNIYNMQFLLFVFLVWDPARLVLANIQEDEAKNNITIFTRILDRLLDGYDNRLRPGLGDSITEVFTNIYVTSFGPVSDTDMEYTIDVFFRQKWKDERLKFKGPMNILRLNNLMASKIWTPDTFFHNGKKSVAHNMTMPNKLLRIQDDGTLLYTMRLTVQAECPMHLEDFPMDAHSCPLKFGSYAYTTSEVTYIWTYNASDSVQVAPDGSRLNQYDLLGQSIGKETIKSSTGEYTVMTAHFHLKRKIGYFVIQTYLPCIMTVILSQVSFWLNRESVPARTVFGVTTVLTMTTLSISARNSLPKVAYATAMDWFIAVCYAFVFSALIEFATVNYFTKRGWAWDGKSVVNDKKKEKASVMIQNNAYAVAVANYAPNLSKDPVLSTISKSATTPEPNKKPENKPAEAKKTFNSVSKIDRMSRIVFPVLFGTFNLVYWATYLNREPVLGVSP
Sequence of Acetylcholinesterase (P22303 whole entry): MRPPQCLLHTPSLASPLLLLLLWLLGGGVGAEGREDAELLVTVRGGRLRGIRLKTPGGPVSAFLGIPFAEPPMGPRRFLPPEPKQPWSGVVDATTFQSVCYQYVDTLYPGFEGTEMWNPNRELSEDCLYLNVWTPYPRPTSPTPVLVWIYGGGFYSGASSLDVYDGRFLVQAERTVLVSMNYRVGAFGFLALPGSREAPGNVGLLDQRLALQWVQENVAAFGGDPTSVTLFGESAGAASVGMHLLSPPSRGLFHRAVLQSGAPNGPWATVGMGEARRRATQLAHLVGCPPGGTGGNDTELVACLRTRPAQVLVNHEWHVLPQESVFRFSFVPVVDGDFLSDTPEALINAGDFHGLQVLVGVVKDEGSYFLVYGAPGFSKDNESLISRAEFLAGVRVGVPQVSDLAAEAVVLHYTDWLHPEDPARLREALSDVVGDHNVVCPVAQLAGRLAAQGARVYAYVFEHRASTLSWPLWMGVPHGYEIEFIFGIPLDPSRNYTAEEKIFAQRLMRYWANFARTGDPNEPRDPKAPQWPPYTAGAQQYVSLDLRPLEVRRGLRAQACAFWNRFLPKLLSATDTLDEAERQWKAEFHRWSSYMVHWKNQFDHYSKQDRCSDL
Sequence of Sodium-dependent dopamine transporter (Q01959 whole entry): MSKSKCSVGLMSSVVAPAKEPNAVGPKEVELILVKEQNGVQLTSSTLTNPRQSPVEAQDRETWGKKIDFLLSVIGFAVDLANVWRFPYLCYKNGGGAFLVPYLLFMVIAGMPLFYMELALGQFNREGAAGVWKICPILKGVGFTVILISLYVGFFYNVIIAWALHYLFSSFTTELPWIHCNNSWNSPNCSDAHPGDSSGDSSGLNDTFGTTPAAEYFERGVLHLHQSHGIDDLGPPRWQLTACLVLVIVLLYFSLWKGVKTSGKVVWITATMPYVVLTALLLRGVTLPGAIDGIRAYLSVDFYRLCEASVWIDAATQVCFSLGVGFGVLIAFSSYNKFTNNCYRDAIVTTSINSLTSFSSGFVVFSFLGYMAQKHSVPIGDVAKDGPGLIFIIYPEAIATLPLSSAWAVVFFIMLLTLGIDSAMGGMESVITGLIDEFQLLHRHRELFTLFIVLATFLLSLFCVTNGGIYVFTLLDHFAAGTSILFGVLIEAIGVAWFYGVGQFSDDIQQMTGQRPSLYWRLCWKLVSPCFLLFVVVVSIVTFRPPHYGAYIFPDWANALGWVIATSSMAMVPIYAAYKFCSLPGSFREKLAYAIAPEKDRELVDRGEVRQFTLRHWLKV
Sequence of Delta-type opioid receptor (P41143 whole entry): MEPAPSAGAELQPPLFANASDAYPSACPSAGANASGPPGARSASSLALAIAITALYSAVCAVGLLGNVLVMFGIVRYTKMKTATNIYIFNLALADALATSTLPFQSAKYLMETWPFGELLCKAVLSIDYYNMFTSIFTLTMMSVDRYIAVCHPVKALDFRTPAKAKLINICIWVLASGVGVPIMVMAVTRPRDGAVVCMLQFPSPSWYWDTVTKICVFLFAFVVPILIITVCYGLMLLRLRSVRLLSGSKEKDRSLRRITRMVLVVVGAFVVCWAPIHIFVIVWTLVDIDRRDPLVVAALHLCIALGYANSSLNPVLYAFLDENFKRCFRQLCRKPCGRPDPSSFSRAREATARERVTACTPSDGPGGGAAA

What is called AC50 is the midpoint of the concentration-response curve, whichever way the signal moves. A high value points to weaker potency. Take `CCN1CCCC1CNC(=O)c1cc(S(N)(=O)=O)ccc1OC` (centres undefined) [SULPIRIDE]: the AC50 in test [1] was > 30 µM; in [2], 7.52 µM; in [3], 16.5 µM; in test [4] it was > 30 µM; in test [5], > 30 µM; in test [6], > 30 µM. For the same compound, the AC50 in [7], in [8] and in test [9] was > 30 µM in each case.
In the case of `COc1cc([C@@H]2c3cc4c(cc3[C@H](O)[C@H]3COC(=O)[C@H]23)OCO4)cc(OC)c1OC` [PODOFILOX], the concentration at half-maximal activity (AC50) in [1], in test [2], in test [10], in [3], in test [4] and in [5] was > 30 µM throughout. Moreover, the AC50 in [6], in test [7] and in test [8] was > 30 µM in each case.
As for `Nc1ccc2cc3ccc(N)cc3nc2c1` [PROFLAVINE], the AC50 was 0.786 µM in test [1]; 7.27 µM in [2]; 22.9 µM in [10]; 10.6 µM in [3]; > 30 µM in test [4]; 5.16 µM in [5]. Further, the concentration at half-maximal activity (AC50) is > 30 µM in [6], 2.69 µM in [7] and 1.84 µM in test [8].
Consider `OB1OCc2cc(F)ccc21` [TAVABOROLE], for which the concentration at half-maximal activity (AC50) in test [1], in [2], in test [10], in test [3], in test [4] and in test [5] was > 30 µM in each case. The AC50 in test [6], in test [7] and in test [8] was > 30 µM throughout.
Consider `NC1CCN(c2c(F)cc3c(=O)c(C(=O)O)cn(C4CC4)c3c2Cl)C1` (centres undefined) [CLINAFLOXACIN], for which the AC50 in test [1], in [2], in test [10], in [3], in test [4] and in test [5] was > 30 µM in each case. Also, the AC50 is > 30 µM in [6], > 30 µM in [7], > 30 µM in [8] and 18 µM in test [11].
Turning to `CC(C)(C)N1CCC(c2ccccc2)(c2ccccc2)CC1` [BUDIPINE], the concentration at half-maximal activity (AC50) in [1], in test [2], in [10], in test [3], in test [4] and in [5] was > 30 µM each time. In addition, the AC50 in test [6], in test [7] and in [8] was > 30 µM throughout.
`CCOc1ccccc1OCC1CNCCO1` (centres undefined) [VILOXAZINE]: the AC50 in test [12] was > 30 µM; in test [1] it was > 30 µM; in test [2], > 30 µM; in test [13] it was > 10 µM; in [10], > 30 µM; in [3] it was > 30 µM. Besides, the AC50 in test [4] was > 30 µM; in test [5], > 30 µM; in test [6], > 30 µM; in test [7], 0.362 µM; in test [8], > 30 µM; in test [11], > 10 µM.
Consider `C[N+]1(CCCCC[N+]2(C)CCCC2)CCCC1` [PENTOLINIUM], for which the half-maximal activity concentration (AC50) in [1], in test [2], in [10], in test [3], in [4] and in test [5] was > 30 µM throughout. Moreover, the AC50 in test [6], in test [7] and in test [8] was > 30 µM in each case.
Regarding `CCOC(=O)/C=C1\SC(N2CCCCC2)C(=O)N1C` (centres undefined) [ETOZOLIN], the concentration at half-maximal activity (AC50) in test [1], in test [2], in test [10], in test [3], in test [4] and in test [5] was > 30 µM in each case. The AC50 in test [6], in [7] and in [8] was > 30 µM in each case.
Take `CCCCOC(=O)C(=O)[C@H]1[C@H](C)C[C@H]2[C@@H]3C[C@H](F)C4=CC(=O)C=C[C@]4(C)[C@H]3[C@@H](O)C[C@@]21C` [FLUOCORTIN BUTYL]: the concentration at half-maximal activity (AC50) in test [1] was > 30 µM; in test [2] it was > 30 µM; in test [10], > 30 µM; in [3] it was > 30 µM; in test [4], > 30 µM; in [5], 27.2 µM. The AC50 is 0.316 µM in test [6], 29.5 µM in [7] and > 30 µM in test [8].
